Experimental data reported in US9827312B2, “Method for carrying therapeutic substances into cells” (MAGFORCE AG, priority 2005, dated 2017).

Columns and labels:
Settings in all cases: procedure of example 2
[1] = tested on: glioblastoma human cell line RUSIRS1; test: Increase in the activity of cytostatics with nanoparticles (Table 1), RUSIRS1; format: cell-based
Protocol: (§1) The experiments in vitro were carried out with the cell lines BT20 (breast carcinoma) and WiDr (colon carcinoma). The tumor cells were taken from tumor tissue of a patient and cultivated as described in DE 199 12 798 C1. 2×10^6 cells, respectively, were prepared in a 75 cm^3 cell culture bottle with 25 ml of cell culture medium (RPMI+10% FBS+1.2 ml of pyruvate for WiDr cells, or respectively BME+10% FBS+pyruvate+5 ml of non-essential amino acids+5 ml glutamine for BT20 cells) for testing the efficacy of the cefamandole/nanoparticle mixture. 136 μl of magnetic fluid MFL AS M01 (iron oxide nanoparticle coated with polycondensed N-(2-aminoethyl)-3-(trimethoxysilyl)propylamine, manufacturer: MagForce Nanotechnologies GmbH, Berlin, Germany) (cFe=2 mol/l) and 390 μl of cefamandole solution (stock solution 1 mg/ml in 0.9% NaCl) were added to said cell suspension.
(§2) Corresponding to the experiment procedure according to example 2, the following […] were tested in vitro with the active ingredients listed in table 1: a) glioblastoma human cell line RUSIRS 1; b) breast carcinoma cell lines BT20; c) colon carcinoma cell line WiDR; d) bronchial carcinoma cells NSCLC, e) rectal carcinoma cells and f) prostate carcinoma cell line DU 145.
(§3) In all cases, an increased activity of the cytostatic could be observed. The increase in activity is indicated in parentheses after the respective cytostatic, wherein (+) means an increase of about 5% to 80% and (++) means an increase of 80% to 500%.

[2] = tested on: breast carcinoma cell lines BT20; test: Increase in the activity of cytostatics with nanoparticles (Table 1), BT20; format: cell-based, human
Protocol: as §1, §2, §3

[3] = tested on: colon carcinoma cell line WiDr; test: Increase in the activity of cytostatics with nanoparticles (Table 1), WiDr; format: cell-based, human
Protocol: as §1, §2, §3

[4] = tested on: bronchial carcinoma cells NSCLC; test: Increase in the activity of cytostatics with nanoparticles (Table 1), NSCLC; format: cell-based
Protocol: as §1, §2, §3

[5] = tested on: rectal carcinoma cells; test: Increase in the activity of cytostatics with nanoparticles (Table 1), rectal carcinoma; format: cell-based
Protocol: as §1, §2, §3

[6] = tested on: prostate carcinoma cell line DU 145; test: Increase in the activity of cytostatics with nanoparticles (Table 1), DU 145; format: cell-based
Protocol: as §1, §2, §3

[7] = tested on: neuroglioma cell line H4; test: Increase in the activity of cytostatics with nanoparticles (Table 1), H4; format: cell-based
Protocol: as §1, §2, §3

COCc1c(C(C)C)nc(C(C)C)c(/C=C/[C@@H](O)C[C@@H](O)CC(=O)O)c1-c1ccc(F)cc1 [cerivastatin]
increase in the activity of cytostatics [1]: (+) ((+) means an increase of about 5% to 80%)
increase in the activity of cytostatics [2]: (+) ((+) means an increase of about 5% to 80%)
increase in the activity of cytostatics [3]: (+) ((+) means an increase of about 5% to 80%)
increase in the activity of cytostatics [4]: (+) ((+) means an increase of about 5% to 80%)
increase in the activity of cytostatics [5]: (++) ((++) means an increase of 80% to 500%)
increase in the activity of cytostatics [6]: (+) ((+) means an increase of about 5% to 80%)
increase in the activity of cytostatics [7]: (+) ((+) means an increase of about 5% to 80%)

O=C(O)CCCc1ccc(N(CCCl)CCCl)cc1 [chlorambucil]
increase in the activity of cytostatics [1]: (+) ((+) means an increase of about 5% to 80%)
increase in the activity of cytostatics [2]: (+) ((+) means an increase of about 5% to 80%)
increase in the activity of cytostatics [3]: (++) ((++) means an increase of 80% to 500%)
increase in the activity of cytostatics [4]: (+) ((+) means an increase of about 5% to 80%)
increase in the activity of cytostatics [5]: (+) ((+) means an increase of about 5% to 80%)
increase in the activity of cytostatics [6]: (+) ((+) means an increase of about 5% to 80%)
increase in the activity of cytostatics [7]: (++) ((++) means an increase of 80% to 500%)

N.N.[Cl][Pt][Cl] [cisplatin]
increase in the activity of cytostatics [1]: (+) ((+) means an increase of about 5% to 80%)
increase in the activity of cytostatics [2]: (+) ((+) means an increase of about 5% to 80%)
increase in the activity of cytostatics [3]: (+) ((+) means an increase of about 5% to 80%)
increase in the activity of cytostatics [4]: (++) ((++) means an increase of 80% to 500%)
increase in the activity of cytostatics [5]: (+) ((+) means an increase of about 5% to 80%)
increase in the activity of cytostatics [6]: (+) ((+) means an increase of about 5% to 80%)
increase in the activity of cytostatics [7]: (++) ((++) means an increase of 80% to 500%)

Nc1nc(O)c2ncn(COC(CO)CO)c2n1 [ganciclovir]
increase in the activity of cytostatics [1]: (++) ((++) means an increase of 80% to 500%)
increase in the activity of cytostatics [2]: (+) ((+) means an increase of about 5% to 80%)
increase in the activity of cytostatics [3]: (+) ((+) means an increase of about 5% to 80%)
increase in the activity of cytostatics [4]: (+) ((+) means an increase of about 5% to 80%)
increase in the activity of cytostatics [5]: (+) ((+) means an increase of about 5% to 80%)
increase in the activity of cytostatics [6]: (+) ((+) means an increase of about 5% to 80%)
increase in the activity of cytostatics [7]: (+) ((+) means an increase of about 5% to 80%)

Nc1ccn([C@@H]2O[C@H](CO)[C@@H](O)C2(F)F)c(=O)n1 [gemcitabine]
increase in the activity of cytostatics [1]: (+) ((+) means an increase of about 5% to 80%)
increase in the activity of cytostatics [2]: (+) ((+) means an increase of about 5% to 80%)
increase in the activity of cytostatics [3]: (+) ((+) means an increase of about 5% to 80%)
increase in the activity of cytostatics [4]: (++) ((++) means an increase of 80% to 500%)
increase in the activity of cytostatics [5]: (+) ((+) means an increase of about 5% to 80%)
increase in the activity of cytostatics [6]: (+) ((+) means an increase of about 5% to 80%)
increase in the activity of cytostatics [7]: (+) ((+) means an increase of about 5% to 80%)

CC(C)Cc1ccc(C(C)C(=O)O)cc1 (stereo not drawn) [ibuprofen]
increase in the activity of cytostatics [1]: (+) ((+) means an increase of about 5% to 80%)
increase in the activity of cytostatics [2]: (+) ((+) means an increase of about 5% to 80%)
increase in the activity of cytostatics [3]: (++) ((++) means an increase of 80% to 500%)
increase in the activity of cytostatics [4]: (+) ((+) means an increase of about 5% to 80%)
increase in the activity of cytostatics [5]: (+) ((+) means an increase of about 5% to 80%)
increase in the activity of cytostatics [6]: (+) ((+) means an increase of about 5% to 80%)
increase in the activity of cytostatics [7]: (+) ((+) means an increase of about 5% to 80%)

CC(=O)[C@]1(O)Cc2c(O)c3c(c(O)c2[C@@H](O[C@H]2C[C@H](N)[C@H](O)[C@H](C)O2)C1)C(=O)c1ccccc1C3=O [idarubicin]
increase in the activity of cytostatics [1]: (++) ((++) means an increase of 80% to 500%)
increase in the activity of cytostatics [2]: (+) ((+) means an increase of about 5% to 80%)
increase in the activity of cytostatics [3]: (+) ((+) means an increase of about 5% to 80%)
increase in the activity of cytostatics [4]: (++) ((++) means an increase of 80% to 500%)
increase in the activity of cytostatics [5]: (+) ((+) means an increase of about 5% to 80%)
increase in the activity of cytostatics [6]: (+) ((+) means an increase of about 5% to 80%)
increase in the activity of cytostatics [7]: (+) ((+) means an increase of about 5% to 80%)

Cc1ccc(NC(=O)c2ccc(CN3CCN(C)CC3)cc2)cc1Nc1nccc(-c2cccnc2)n1 [imatinib]
increase in the activity of cytostatics [1]: (+) ((+) means an increase of about 5% to 80%)
increase in the activity of cytostatics [2]: (+) ((+) means an increase of about 5% to 80%)
increase in the activity of cytostatics [3]: (++) ((++) means an increase of 80% to 500%)
increase in the activity of cytostatics [4]: (+) ((+) means an increase of about 5% to 80%)
increase in the activity of cytostatics [5]: (+) ((+) means an increase of about 5% to 80%)
increase in the activity of cytostatics [6]: (+) ((+) means an increase of about 5% to 80%)
increase in the activity of cytostatics [7]: (+) ((+) means an increase of about 5% to 80%)

Cc1oncc1C(=O)Nc1ccc(C(F)(F)F)cc1 [leflunomide]
increase in the activity of cytostatics [1]: (+) ((+) means an increase of about 5% to 80%)
increase in the activity of cytostatics [2]: (+) ((+) means an increase of about 5% to 80%)
increase in the activity of cytostatics [3]: (+) ((+) means an increase of about 5% to 80%)
increase in the activity of cytostatics [4]: (+) ((+) means an increase of about 5% to 80%)
increase in the activity of cytostatics [5]: (+) ((+) means an increase of about 5% to 80%)
increase in the activity of cytostatics [6]: (+) ((+) means an increase of about 5% to 80%)
increase in the activity of cytostatics [7]: (+) ((+) means an increase of about 5% to 80%)

N#Cc1ccc(C(c2ccc(C#N)cc2)n2cncn2)cc1 [letrozole]
increase in the activity of cytostatics [1]: (+) ((+) means an increase of about 5% to 80%)
increase in the activity of cytostatics [2]: (+) ((+) means an increase of about 5% to 80%)
increase in the activity of cytostatics [3]: (+) ((+) means an increase of about 5% to 80%)
increase in the activity of cytostatics [4]: (+) ((+) means an increase of about 5% to 80%)
increase in the activity of cytostatics [5]: (+) ((+) means an increase of about 5% to 80%)
increase in the activity of cytostatics [6]: (+) ((+) means an increase of about 5% to 80%)
increase in the activity of cytostatics [7]: (+) ((+) means an increase of about 5% to 80%)

Cc1onc(-c2ccccc2)c1C(=O)N[C@@H]1C(=O)N2[C@@H]1SC(C)(C)[C@@H]2C(=O)O [oxacillin]
increase in the activity of cytostatics [1]: (+) ((+) means an increase of about 5% to 80%)
increase in the activity of cytostatics [2]: (+) ((+) means an increase of about 5% to 80%)
increase in the activity of cytostatics [3]: (++) ((++) means an increase of 80% to 500%)
increase in the activity of cytostatics [4]: (+) ((+) means an increase of about 5% to 80%)
increase in the activity of cytostatics [5]: (+) ((+) means an increase of about 5% to 80%)
increase in the activity of cytostatics [6]: (++) ((++) means an increase of 80% to 500%)
increase in the activity of cytostatics [7]: (+) ((+) means an increase of about 5% to 80%)

CC(=O)O[C@H]1C(=O)[C@@]2(C)[C@H]([C@H](OC(=O)c3ccccc3)[C@]3(O)C[C@H](OC(=O)[C@H](O)[C@@H](NC(=O)c4ccccc4)c4ccccc4)C(C)=C1C3(C)C)[C@]1(OC(C)=O)CO[C@@H]1C[C@@H]2O [paclitaxel]
increase in the activity of cytostatics [1]: (+) ((+) means an increase of about 5% to 80%)
increase in the activity of cytostatics [2]: (++) ((++) means an increase of 80% to 500%)
increase in the activity of cytostatics [3]: (+) ((+) means an increase of about 5% to 80%)
increase in the activity of cytostatics [4]: (+) ((+) means an increase of about 5% to 80%)
increase in the activity of cytostatics [5]: (+) ((+) means an increase of about 5% to 80%)
increase in the activity of cytostatics [6]: (+) ((+) means an increase of about 5% to 80%)
increase in the activity of cytostatics [7]: (+) ((+) means an increase of about 5% to 80%)
